The structures appear in SMILES notation.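 Cultured in 96-well plates, cells were exposed to test compound for 48 hours across five concentrations. Here, GI50 denotes the concentration required for 50% inhibition of growth.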 The source made the active and inactive calls. No stated cut-off is given here; in the data, active = GI50 up to about 1.1 µM and inactive = higher.

Data on 14 molecules can be found in ChEMBL document CHEMBL1201862, “PubChem BioAssay data set” (2004).

What all share (experiment): growth of human tumour cells (NCI), 48 h
Assay [1] concerns CCRF-CEM.
Assay [2] deals with COLO 205.
The test system of assay [3] is HCT-116.
Assay [4] deals with HCT-15.
The test system of assay [5] is HL-60.
In assay [6] the test system is IGROV-1.
The test system of assay [7] is MOLT-4.
The test system of assay [8] is NCI-H226.
Assay [9] deals with NCI-H522.
Assay [10] deals with OVCAR-8.
For assay [11], the system named is RPMI-8226.
The subject of assay [12] is SK-MEL-28.
The subject of assay [13] is SK-MEL-5.
Assay [14] concerns SNB-19.
In assay [15] the test system is SNB-75.
The subject of assay [16] is UACC-257.
In assay [17] the test system is SR.

Regarding `N=C(N)NCCCC(Nc1c2ccccc2[n+]([O-])c2ccccc12)C(=O)O` (centres undefined), the GI50 in [1] was 33.4 µM (inactive); in [2], 27.3 µM (inactive); in assay [3], 24.9 µM (inactive); in assay [4], 36.8 µM; in assay [5], 14.8 µM (inactive); in assay [6] it was > 100 µM (inactive). Further, the GI50 was 37.8 µM (inactive) in assay [7]; 70.6 µM (inactive) in [8]; 29 µM (inactive) in assay [9]; 31.6 µM (inactive) in assay [10]; 10.4 µM (inactive) in [11]; 27.2 µM (inactive) in assay [12]. For the same molecule, the GI50 was 22.6 µM (inactive) in [13], 64 µM (inactive) in [14] and 34.8 µM (inactive) in assay [15].
For the molecule `O=Cc1cn(C(=O)c2ccccc2)c2ccccc12`, the GI50 in [1] is 43.2 µM (inactive); in assay [3], 43.2 µM (inactive); in assay [4], over 100 µM; in assay [5], 28.7 µM (inactive); in assay [6], > 100 µM (inactive); in [7], 54.2 µM (inactive). For the same molecule, the GI50 in [8] is 56 µM (inactive); in assay [10] it was > 100 µM (inactive); in [11] it was 37.2 µM (inactive); in [12] it was > 100 µM (inactive); in assay [13] it was 45 µM (inactive); in assay [15], 43.6 µM (inactive). Also, the GI50 in assay [16] is 83 µM (inactive).
For the molecule `COc1cc(OC)c(C#N)c(OC)c1C`, the GI50 in assay [1], in [5], in [7], in [8], in [10] and in assay [12] was > 100 µM (inactive) each time. The GI50 in assay [13], in assay [14], in assay [17] and in assay [16] was > 100 µM (inactive) in each case.
As for `O=C(c1ccccc1)[C@H]1Nc2ccc(Cl)cc2[C@H]2OCCC[C@@H]12`, the GI50 was 21.5 µM (inactive) in [2]; 16.3 µM (inactive) in assay [3]; 23.1 µM in assay [4]; 39 µM (inactive) in assay [6]; 16.8 µM (inactive) in assay [7]; 21.3 µM (inactive) in assay [8]. For the same molecule, the GI50 in [9] is 14.1 µM (inactive); in assay [10] it was 20.9 µM (inactive); in [11], 19.3 µM (inactive); in assay [12], 18.2 µM (inactive); in assay [14], 27.6 µM (inactive); in assay [17], 26.1 µM (inactive).
Take `COc1cc(C2C3=C(CCC3=O)Oc3cc4c(cc32)OCO4)cc(OC)c1OC` (centres undefined): the GI50 in assay [1] is 0.318 µM (active); in [2] it was 0.336 µM (active); in assay [3] it was 0.391 µM (active); in assay [4] it was 0.256 µM; in [5], 0.204 µM (active); in assay [6], 0.67 µM (active). The GI50 in [10] is 0.596 µM (active); in assay [12], 0.429 µM (active); in assay [13] it was 0.237 µM (active); in assay [14], 0.692 µM (active); in assay [15] it was 0.038 µM (active); in assay [16], 0.406 µM (active).
For the molecule `O=P(Nc1cccc(Cl)c1)(Oc1ccccc1)N(CCCl)CCCl` (centres undefined), the GI50 in assay [1] was > 100 µM (inactive); in assay [2] it was 15.9 µM (inactive); in assay [3], 13.1 µM (inactive); in [4], 13.5 µM; in assay [5], 70.6 µM (inactive); in assay [6] it was 15.8 µM (inactive). In addition, the GI50 in assay [7] is 17.4 µM (inactive); in assay [8], 15 µM (inactive); in assay [9], 99.5 µM (inactive); in assay [10], 17 µM (inactive); in assay [12], 16.6 µM (inactive); in assay [13], 12.4 µM (inactive). The GI50 in assay [15] was 15.6 µM (inactive); in assay [17], 31.6 µM (inactive); in [16] it was 14.1 µM (inactive).
As to `COc1ccc(C2C(Cl)C(=O)N2NC(=O)c2ccc(N)cc2)cc1` (centres undefined), the GI50 is 93.5 µM (inactive) in [1]; > 100 µM (inactive) in assay [2]; > 100 µM (inactive) in assay [3]; over 100 µM in [4]; > 100 µM (inactive) in assay [5]; > 100 µM (inactive) in assay [6]. The GI50 in assay [7], in [8], in assay [9], in assay [10], in assay [11] and in assay [12] was > 100 µM (inactive) in each case. Besides, the GI50 in assay [13], in assay [14], in assay [15] and in assay [16] was > 100 µM (inactive) in each case.
Consider `COC(=O)C(Cc1nc2ccccc2nc1O)C(=O)C(=O)Nc1ccc(F)cc1` (centres undefined), for which the GI50 in [1] was 27.3 µM (inactive); in assay [2], 37.9 µM (inactive); in [3], 41.2 µM (inactive); in assay [4] it was over 100 µM; in assay [5], 45.5 µM (inactive); in assay [6], 53.5 µM (inactive). Also, the GI50 in assay [7] is 58.6 µM (inactive); in assay [8], > 100 µM (inactive); in assay [9], 10.3 µM (inactive); in assay [10], 20 µM (inactive); in [12], 27.4 µM (inactive); in assay [13], > 100 µM (inactive). Also, the GI50 in [14] was > 100 µM (inactive); in assay [15], 28.8 µM (inactive); in [17], 33 µM (inactive); in assay [16], > 100 µM (inactive).
Regarding `O=C(CN1CCN(c2cccc(Cl)c2)CC1)N1CCc2c([nH]c3ccccc23)C1c1cccnc1` (centres undefined), the GI50 in assay [1] was 3.15 µM (inactive); in assay [3] it was 4.5 µM (inactive); in assay [4], 5.25 µM; in assay [5], 2.38 µM (inactive); in assay [6], 22.4 µM (inactive); in assay [7], 2.54 µM (inactive). The GI50 in [9] is 12.2 µM (inactive); in assay [10], 19.4 µM (inactive); in assay [11] it was 1.92 µM (inactive); in assay [12] it was 12.2 µM (inactive); in assay [13] it was 11.9 µM (inactive); in assay [14], 26.1 µM (inactive). In addition, the GI50 in assay [15] was 7.62 µM (inactive); in assay [17] it was 2.23 µM (inactive); in assay [16] it was 5.41 µM (inactive).
Turning to `CC1(c2ccc(Cl)cc2)C2C(=O)NC(=O)C1C(=O)NC2=O` (centres undefined), the GI50 was > 100 µM (inactive) in [1]; > 100 µM (inactive) in assay [2]; over 100 µM in assay [4]; > 100 µM (inactive) in [5]; > 100 µM (inactive) in [6]; > 100 µM (inactive) in assay [7]. Besides, the GI50 in assay [9], in assay [10], in [11], in [12], in [13] and in [14] was > 100 µM (inactive) each time. The GI50 in assay [15] and in assay [16] was > 100 µM (inactive) each time.
For `C[P+](C)(C)c1ccccc1`, the GI50 was > 100 µM (inactive) in assay [1]; > 100 µM (inactive) in assay [2]; > 100 µM (inactive) in assay [3]; over 100 µM in assay [4]; > 100 µM (inactive) in assay [5]; > 100 µM (inactive) in assay [6]. Further, the GI50 in assay [7], in [8], in assay [10], in assay [11], in [12] and in assay [13] was > 100 µM (inactive) throughout. For the same molecule, the GI50 in [14], in assay [15], in assay [17] and in [16] was > 100 µM (inactive) each time.
With `Cc1cc(N(CCC#N)CCC#N)ccc1/N=N/c1cccc(C(=O)O)c1`, the GI50 in [1] was > 100 µM (inactive); in assay [2] it was > 100 µM (inactive); in [4] it was over 100 µM; in [5] it was > 100 µM (inactive); in [6], > 100 µM (inactive); in assay [7], > 100 µM (inactive). For the same molecule, the GI50 was > 100 µM (inactive) in assay [8]; 38.8 µM (inactive) in [9]; > 100 µM (inactive) in [10]; 97.7 µM (inactive) in assay [12]; > 100 µM (inactive) in [13]; 34.1 µM (inactive) in assay [15]. In assay [16], the GI50 is > 100 µM (inactive).
As to `CN1OC(=O)N(C)C1c1ccccc1` (centres undefined), the GI50 was > 100 µM (inactive) in assay [1]; > 100 µM (inactive) in [2]; > 100 µM (inactive) in assay [3]; over 100 µM in assay [4]; > 100 µM (inactive) in assay [5]; > 100 µM (inactive) in assay [6]. The GI50 in assay [7], in [8], in [9], in [10], in assay [11] and in assay [12] was > 100 µM (inactive) in each case. Besides, the GI50 in assay [13], in assay [14], in [15] and in assay [16] was > 100 µM (inactive) in each case.
For `COc1ccc(C2Oc3cc(OC)c(O)cc3[C@@H]2C)cc1` (some centres undefined), the GI50 in assay [1] was 15.5 µM (inactive); in assay [2] it was > 100 µM (inactive); in assay [3], 12.8 µM (inactive); in assay [4], 16.5 µM; in assay [5], 18.2 µM (inactive); in assay [6], > 10 µM (inactive). Besides, the GI50 in assay [7] is 14.9 µM (inactive); in assay [8], 17.2 µM (inactive); in assay [9], 16.5 µM (inactive); in assay [10], 23.2 µM (inactive); in [11] it was 22.3 µM (inactive); in [12], 56.8 µM (inactive). Moreover, the GI50 in assay [13] was 31.1 µM (inactive); in assay [14] it was 1.87 µM (inactive); in assay [15], 3.08 µM (inactive); in [16] it was 44.6 µM (inactive).
